Laboratory results taken from patent US4783462A, “3(2H)pyridazinone, and anti-allergic agent containing it” (Nissan Chemical Industries Ltd., priority 1985, dated 1988).

Tests used:
LTC4 [1] = experiment: Antagonism in isolated guinea-pig trachea, Test method (i) (Table 3, given as LTC4 antagonism); format: cell-based; conditions: 5 min, test compound 10^-5 g/ml, given as LTC4 antagonisms; for inhibition at 10 µg/mL: Cavia porcellus
Outline: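 Spiral strips of guinea-pig trachea under 1 g tension, contracted by LTC4 (2×10^-8 g/ml) after maximal histamine (10^-4 M) response. Compounds added at 10^-5 or 10^-6 g/ml final 5 min beforehand; contraction expressed as % histamine maximum and antagonism % calculated against paired untreated trachea.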

ddY strain male mice [2] = experiment: Acute toxicity test, Test method-(2), intraperitoneal; format: in vivo; conditions: 7 days
Experimental: The lethal ratio was determined in ddY strain male mice (4 weeks old) at 7 days after the intraperitoneal injection of test compounds.

LTC4 [3] = experiment: LTC4 antagonism in isolated guinea-pig trachea, Test method (i) (Table 2); format: cell-based; conditions: Cavia porcellus, 5 min; LTC4 2×10^-8 g/ml; test compound 10^-5 g/ml; read-out: Antagonism (%)
Experimental: (§1) (i) LTC4 and LTD4 antagonisms in guinea-pig trachea
(§2) Antagonisms for LTC4 and LTD4 were determined in isolated guinea-pig trachea prepared as spiral strip. Tracheal preparations were suspended under 1 g tension in 10 ml organ baths and they were incubated for 1 hr prior to use. Contractile responses to LTC4 (2×10^-8 g/ml) and LTD4 (2×10^-8 g/ml) were obtained after the maximal response to histamine (10^-4 M). Test compounds dissolved in 100% dimethyl sulfoxide were added to the organ baths (final concentration of 10^-5 g/ml or 10^-6 g/ml) 5 min prior to LTC4 and LTD4 addition, and then contractile responses to LTC4 and LTD4 were compared with those of control which was obtained from a paired trachea in the absence of test compounds. LTC4 - and LTD4 -induced contractions were expressed as a percentage of the maximal response to histamine. The antagonism was determined as follows:
(§3) Antagonism (%)=(1.0-% contraction in test/% contraction in […]

[4] = system: anaphylactic bronchoconstriction in passively sensitized guinea-pig; experiment: Effect on anaphylactic bronchoconstriction in passively sensitized guinea-pig; format: in vivo; conditions: 2 mg/kg i.v.
Experimental: (iii) Effect on anaphylactic bronchoconstriction in passively sensitized guinea-pig
Male guinea-pigs (350-450 g) were passively sensitized with intravenous (i.v.) injection of 0.125 ml rabbit anti-EA (egg albumin) serum (Cappel Laboratories) 1 day preceding the experiment. […] Sensitized guinea-pigs were anaesthetized with intraperitoneal injection of urethane (1.5 g/kg). The right jugular vein was cannulated for the administration of the all agents and trachea was cannulated to record total pulmonary resistance. Guinea-pigs were artificially ventilated by a small animal respirator (Shinano, Model SN-480-7) set at a stroke volume of 5 ml and a rate of 50 breaths per min. […] The increase in air overflow volume was expressed as a percentage of the maximum bronchoconstriction obtained by clamping off the trachea. Following surgical preparation, the animals were pretreated with indomethacin (1.0 mg/kg, 10 min), pyrilamine (2 mg/kg, 6 min) and propranolol (0.1 mg/kg, 5 min) prior to the EA challenge (0.1 or 10 mg/kg). All test compounds, 2 mg/kg in 3% Tween 80 or 3% PEG-400, were administered 1 min before the EA challenge. Inhibition (%) of bronchoconstriction was determined as follows: Inhibition (%)=(1.0%-maximum bronchoconstriction in test/% maximum bronchoconstriction in control)×100. The maximum bronchoconstriction was obtained within 20 min after the EA challenge.
In the Table, the dose of EA was 10 mg/kg, and each compound was dissolved or suspended in 3% Tween 80.
The dose of EA was 0.1 mg/kg.

LTD4 [5] = experiment: LTD4 antagonism in isolated guinea-pig trachea, Test method (i) (Table 4, values with asterisk); format: cell-based; conditions: Cavia porcellus, 5 min, test compound 10^-6 g/ml, 5 min prior
Experimental: as §1, §2, §3

LTD4 [6] = experiment: LTD4 antagonism in isolated guinea-pig trachea with indomethacin, Test method (ii) (Table 4); format: cell-based; conditions: Cavia porcellus, 0.5 h, LTD4 2×10^-8 g/ml, test compound 10^-6 g/ml, 30 min prior, 5 μmol indomethacin
Experimental: (ii) LTD4 antagonism in guinea-pig trachea
Antagonism for LTD4 was determined in isolated guinea-pig trachea prepared as spiral strip. Tracheal preparations were suspended under 1 g tension in 10 ml organ baths containing 5 μmol of indomethacin and they were incuated for 1 hr prior to use. Contractile responses to LTD4 (2×10^-8 g/ml) were obtained after the maximal response to histamine (10^-4 M). Test compounds dissolved in 100% dimethyl sulfoxide were added to the organ baths (final concentration of 10^-6 g/ml) 30 min prior to LTD4 addition, and then contractile responses to LTD4 were compared with those of control which was obtained from a paired trachea in the absence of test compounds. LTD4 -induced contractions were expressed as a percentage of the maximal response to histamine. The antagonism was determined as follows:
as §3

ddY strain male mice [7] = experiment: Acute toxicity test, Test method-(1), oral; format: in vivo; conditions: 7 days
Experimental: The lethal ratio was determined in ddY strain male mice (4 weeks old) at 7 days after the oral administation of test compounds.

[8] = Table 5-(1), EA 10 mg/kg, 3% Tween 80
[9] = Table 5-(2), EA 0.1 mg/kg, PEG-400
[10] = Table 5-(2), EA 0.1 mg/kg, Tween 80

SMILES	inhibition at 10 µg/mL (LTC4 [1]) [%]	inhibition at 1 µg/mL (LTD4 [5]) [%]	also measured
CCCc1cc(C(=O)OC)ccc1OCCCNc1cn[nH]c(=O)c1Cl [Compound No. 4, 4-Chloro-5-[3-(2-n-propyl-4-methoxycarbonylphenoxy)propylamino]-3(2H)pyridazinone]	85		Lethal ratio (Death number/Experimental number) (ddY strain male mice [2]; 200 mg/kg intraperitoneal): 0/2; Lethal ratio (Death number/Experimental number) (ddY strain male mice [2]; 400 mg/kg intraperitoneal): 0/1; inhibition at 10 µg/mL (LTC4 [3]): 99%; Inhibition (%) [4, 8]: 27%
CCCc1cc(C(=O)OC)ccc1OCCCNc1cnn(CC)c(=O)c1Cl [Compound No. 6, 4-Chloro-5-[3-(2-n-propyl-4-methoxycarbonylphenoxy)propylamino]-2-ethyl-3(2H)pyridazinone]	96	78	Inhibition (%) [4, 9]: 44%
CCn1ncc(NCCc2ccc(OC)cc2)c(Cl)c1=O [Compound No. 20, 4-Chloro-5-[2-(4-methoxyphenyl)ethylamino]-2-ethyl-3(2H)pyridazinone]	80		inhibition at 10 µg/mL (LTC4 [3]): 73%
CCCc1cc(C(=O)O)ccc1OCCCNc1cnn(C(C)C)c(=O)c1Cl [Compound No. 41, 4-chloro-5-[3-(2-n-propyl-4-carboxyphenoxy)propylamino]-2-i-propyl-3(2H)pyridazinone]			Antagonism (%) (LTC4 [1]): 100%; Lethal ratio (Death number/Experimental number) (ddY strain male mice [2]; 200 mg/kg intraperitoneal): 0/2; inhibition at 1 µg/mL (LTD4 [6]): 82%; Inhibition (%) [4, 10]: 31%
CCCc1cc(C(N)=O)ccc1OCCCNc1cnn(C(C)C)c(=O)c1Cl [Compound No. 42, 4-Chloro-5-[3-(2-n-propyl-4-carbamoylphenoxy)propylamino]-2-i-propyl-3(2H)pyridazinone]	95		Lethal ratio (Death number/Experimental number) (ddY strain male mice [2]; 200 mg/kg intraperitoneal): 0/2; Lethal ratio (Death number/Experimental number) (ddY strain male mice [2]; 400 mg/kg intraperitoneal): 0/1; inhibition at 1 µg/mL (LTD4 [6]): 76%; Inhibition (%) [4, 9]: 31%
CCCc1cc(OC)ccc1OCCCNc1cnn(CC)c(=O)c1Cl [Compound No. 82, 4-chloro-5-[3-(2-n-propyl-4-methoxyphenoxy)propylamino]-2-ethyl-3(2H)pyridazinone]	100		Lethal ratio (ddY strain male mice [7]; 400 mg/kg oral): 0/2; Lethal ratio (ddY strain male mice [7]; 800 mg/kg oral): 0/2
CCCCc1cc(C(=O)O)ccc1OCCCNc1cnn(C(C)C)c(=O)c1Cl [Compound No. 112, 4-chloro-5-[3-(2-n-butyl-4-carboxyphenoxy)propylamino]-2-i-propyl-3(2H) pyridazinone]	100	62	
CCCCc1cc(C(N)=O)ccc1OCCCNc1cnn(C(C)C)c(=O)c1Cl [Compound No. 114, 4-Chloro-5-[3-(2-n-butyl-4-carbamoylphenoxy)propylamino]-2-i-propyl-3-(2H)pyridazinone]	89	66	
C=CCc1cc(C#N)ccc1OCCCNc1cnn(CC)c(=O)c1Br [Compound No. 117]	98	67	
CCCCc1cc(C(=O)O)ccc1OCCCNc1cnn(C(C)C)c(=O)c1Br [Compound No. 127]		91	
CCCc1cc(C#N)ccc1OCC(CNc1cnn(C(C)C)c(=O)c1Cl)OC (centres unmarked) [Compound No. 158, 4-Chloro-5-[3-(2-n-propyl-4-cyanophenoxy)-2-methoxypropylamino]-2-i-propyl-3(2H)pyridazinone]	93	53	
CCCc1c(OCCCOc2cnn(C(C)(C)C)c(=O)c2Cl)ccc2c(=O)cc(C(=O)OCC)oc12 [compound 23]	31		inhibition at 10 µg/mL (LTC4 [3]): 27%
CCCc1c(OCCCOc2cnn(CC)c(=O)c2Cl)ccc2c(=O)cc(C(=O)OCC)oc12 [compound 25]	24		inhibition at 10 µg/mL (LTC4 [3]): 53%; Inhibition (%) [4, 8]: 18%
COc1cccc(OCCCOc2cnn(C(C)(C)C)c(=O)c2Cl)c1 [compound 27]	65		Lethal ratio (Death number/Experimental number) (ddY strain male mice [2]; 100 mg/kg intraperitoneal): 0/2; Lethal ratio (Death number/Experimental number) (ddY strain male mice [2]; 200 mg/kg intraperitoneal): 0/2; Inhibition (%) [4, 8]: 23%
CCn1ncc(OCCCOc2cccc(OC)c2)c(Cl)c1=O [compound 28]	61		Lethal ratio (Death number/Experimental number) (ddY strain male mice [2]; 200 mg/kg intraperitoneal): 0/2; Lethal ratio (Death number/Experimental number) (ddY strain male mice [2]; 400 mg/kg intraperitoneal): 0/1; Inhibition (%) [4, 8]: 17%
CCCc1cc(C#N)ccc1OCCCNc1cnn(CC)c(=O)c1Cl [compound 47]	99		Lethal ratio (Death number/Experimental number) (ddY strain male mice [2]; 200 mg/kg intraperitoneal): 0/2; Lethal ratio (Death number/Experimental number) (ddY strain male mice [2]; 400 mg/kg intraperitoneal): 0/2; Inhibition (%) [4, 8]: 28%

SMILES	inhibition at 10 µg/mL (LTC4 [1]) [%]	inhibition at 1 µg/mL (LTD4 [5]) [%]	also measured
C=CCc1cc(C#N)ccc1OCCCNc1cnn(C(C)C)c(=O)c1Cl [compound 69]	99	66	Inhibition (%) [4, 10]: 51%
Cc1ccccc1OCCCNc1cnn(C(C)C)c(=O)c1Cl [compound 72]	85		Lethal ratio (ddY strain male mice [7]; 400 mg/kg oral): 0/2
C=CCc1cc(C#N)ccc1OCCCNc1cnn(CC)c(=O)c1Cl [compound 80]	98	59	Lethal ratio (ddY strain male mice [7]; 400 mg/kg oral): 0/2; Lethal ratio (ddY strain male mice [7]; 800 mg/kg oral): 0/2
CCc1cc(C=O)ccc1OCCCNc1cnn(C(C)C)c(=O)c1Cl [compound 94]	98		Lethal ratio (ddY strain male mice [7]; 400 mg/kg oral): 0/2; Lethal ratio (ddY strain male mice [7]; 800 mg/kg oral): 0/2
CCc1cc(C(=O)OC)ccc1OCCCNc1cnn(C(C)C)c(=O)c1Cl [compound 101]	92		Inhibition (%) [4, 9]: 51%; Lethal ratio (ddY strain male mice [7]; 400 mg/kg oral): 0/2; Lethal ratio (ddY strain male mice [7]; 800 mg/kg oral): 0/2
CCCc1cc(C#N)ccc1OCCCNc1cnn(CC)c(=O)c1Br [compound 116]	90	82	
CCCc1cc(C(=O)OC)ccc1OCCCNc1cnn(CC)c(=O)c1Br [compound 118]	91	69	
CCCc1cc(C#N)ccc1OCCCNc1cnn(C(C)C)c(=O)c1Br [compound 120]		82	
CCCc1cc(C(N)=O)ccc1OCCCNc1cnn(CC)c(=O)c1Br [compound 121]		43	
C=CCc1cc(C#N)ccc1OCCCNc1cnn(C(C)C)c(=O)c1Br [compound 123]		65	
CCCc1cc(C#N)ccc1OCCCNc1cnn(C(C)(C)C)c(=O)c1CCC [compound 128]		17	
CCCc1cc(C(=O)OC)ccc1OCCCNc1cn[nH]c(=O)c1CCC [compound 131]		33	
CCCc1cc(C(=O)O)ccc1OCCCNc1cn[nH]c(=O)c1CCC [compound 132]		26	
CCCc1cc(C(=O)OC)ccc1OCCCNc1cnn(CC)c(=O)c1CCC [compound 133]		27	
CCCc1cc(C(=O)OC)ccc1OCC(CN(C)c1cnn(C(C)C)c(=O)c1Cl)OC (centres unmarked) [compound 164]	71		Inhibition (%) [4, 10]: 40%
